Consider 2 compounds from PMC8861050, “Design, synthesis and evaluation of novel 2-oxoindoline-based acetohydrazides as antitumor agents” (Scientific Reports, 2022).

Broadly, the IC50 is the concentration needed to halve the response being measured.

Series [1] is described as follows: Cytotoxicity on normal mesenchymal stem cells. In kind it is cell-based. As to conditions: human bone marrow-derived mesenchymal stem cells; mean ± SEM; read-out: Cytotoxicity (IC50) MSCs. As to the method: Overally, 5-fluorinated compounds (4i–p and 5d–f) were slightly more cytotoxic than non-fluorinated ones (4a–h, 5a–c). For compounds in series 4a–p, it was observed that, electron-releasing substituents (–OCH3, OH) were generally better than electron-withdrawing groups (–Cl) for cytotoxicity. Especially, compounds with 2-OH substituents produced the best cytotoxicity. The addition of either 4-OCH3 or 3-allyl groups further enhanced cytotoxicity of the related compounds (4g, 4h and 4o, 4p).

Another series relates to SW620 (colon cancer). Briefly: SRB cytotoxicity assay, SW620. Conditions: Homo sapiens, SW-620, 48 h incubation, mean ± SEM of 3 independent experiments. In kind it is cell-based. From the text:
(§1) Three human cancer cell lines: colon cancer (SW620), prostate cancer (PC3), and lung cancer (NCI-H23) were used for sceening the cytotoxicity of the compounds. The cancer cells were purchased from American Type Culture Collection (Manassas, VA, USA). Other reagents/media for cell culture were obtained from GIBCO (Grand Island, New York, USA). The testing cancer cells were culture in Dulbecco’s Modified Eagle Medium until confluence. Then, they were trypsinized and suspended at the level of 3 × 10^4 cells/mL of cell culture medium. On day 0, cancer cells were seeded at a volume of 180 µL/well of 96-well plates and incubated for 24 h at 37 °C in a 5% CO2 incubator. On day 1, 20 µL of various concentrations of testing compounds were added to each well of the 96-well plates. Chemicals were dissolved in dimethyl sulfoxide (DMSO, stock) and diluted in culture medium (1% DMSO) before adding to the culture. After 48 h incubation, the sulforhodamine B assay was used for cell density determination with slight modifications[22]–[26]. The Probits were used for the calculation of IC50 values. The reported IC50 were the averages of three independent screening (SD ≤ 10%)[27].
(§2) Two series of compounds synthesized (4a–p and 5a–f) were evaluated for their cytotoxicity against three human cancer cell lines, including SW620 (colon cancer), PC3 (prostate cancer), NCI-H23 (lung cancer), using SRB method as described previously[22] with slight modifications[23]–[26].
For orientation: The SRB assay estimates cell density from bound dye.

The test system of series [2] is NCI-H23 (lung cancer). Briefly: SRB cytotoxicity assay, NCI-H23. As to conditions: Homo sapiens, 48 h incubation, mean ± SEM of 3 independent experiments. In kind it is cell-based.
From the text: as §1, §2

The target of the next series is T1, caspase-3 (Homo sapiens, UniProt P42574).
T1 construct: endogenous in cells; host or cells: U937 human lymphoma cells
T1 sequence (P42574 1-277): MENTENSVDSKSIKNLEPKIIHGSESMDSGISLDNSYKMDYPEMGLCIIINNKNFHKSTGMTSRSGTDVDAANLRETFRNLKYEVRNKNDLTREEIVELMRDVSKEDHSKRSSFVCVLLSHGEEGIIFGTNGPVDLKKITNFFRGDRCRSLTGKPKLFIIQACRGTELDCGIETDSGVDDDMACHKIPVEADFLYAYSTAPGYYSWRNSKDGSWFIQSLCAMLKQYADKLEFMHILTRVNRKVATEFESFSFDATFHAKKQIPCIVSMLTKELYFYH
Briefly: Caspase-3 activation assay in U937 cell extract. Format: cell-based. As to conditions: U937 cells, 24 h, 50 µM. The method, then:
Caspase-3 activation assay
Caspase activity was measured by using caspase 3 assay kit according to the manufacturer’s instructions (abcam, MA, USA). U937 human lymphoma cells (5 × 10^5/mL per well) were plated in 6-well culture plates and allowed to grow for 24 h. The cells were treated with compounds for 24 h, and then harvested. The harvested cells were washed twice with ice-cold PBS and treated with lysis buffer included in the kit. Cell lysate (100 µg/50 µL) was mixed with 50 µL of 2 × reaction buffer and 5 µL of DEVD-p-NA substrate as the instruction of caspase-3 assay kit (Abcam, cat. N. ab39401). […] was measured after one-hour incubation.
Next, we selected 5 representative compounds, including 4f, 4h, 4n, 4o and 4p, to investigate their effects on the caspase activity, cell cycle, and apoptosis. […] Thus, we used the extract of U937 cells in caspase-3 activation assay, referring to our previous study. […] However, our compounds unexpectedly were not recorded to activate caspase-3 activity. […] Next, we investigated the effect of PAC-1 and our chemicals on cell cycle and apoptosis by using U937 cells. In the cell cycle analysis, U937 cells were treated with 50 µM of compounds for 24 h, stained with propidium iodide (PI) in the presence of RNase, and then analyzed for DNA content by using flow cytometry. PAC-1 was used in parallel as a positive control.

For another series, the system named is SW620 cells. Briefly: Morphology changes of treated cells. In kind it is cell-based, human. Conditions: 24 h treatment (50 μM; 4o 5, 10, 30 μM; PAC-1 30 μM). The method, then:
Figure 7 Morphology changes of cells treated with compound 4f, 4h, 4n, 4o, 4p or PAC-1. SW620 at 2.5 × 10^5 cells/mL (500 µL in 24 well) were incubated for 24 h and then further treated with compounds or PAC-1 (50 μM) for 24 h. Cells were photographed using an Imaging Device (Celldiscoverer 7) with ×20 (A) and ×40 (B) lens. Scale bar: […]. UN untreated, VH vehicle (DMSO. 0.1%). Representative images are shown.
Figure 8 Morphology changes of cells treated with compound 4o or PAC-1. SW620 at 2.5 × 10^5 cells/mL (500 µL in 24 well) were incubated for 24 h and then further treated with 4o (5, 10, and 30 μM) or PAC-1 (30 μM) for 24 h. Cells were photographed using an Imaging Device (Celldiscoverer 7) with ×20 (A) and ×40 (B) lens. Scale bar: […]. UN untreated, VH vehicle (DMSO. 0.1%). Representative images are shown.

Series [3] concerns U937 human lymphoma cells. Briefly: Cell cycle analysis (PI, flow cytometry). In kind it is cell-based. Conditions: 50 µM, 24 h. The method, then:
U937 human lymphoma cells (5 × 10^5/mL per well) were plated in 6-well culture plates and allowed to grow for 24 h. In our first experiment, we examined the effects of 4f, 4h, 4n, 4o, 4p, and PAC-1 on cell cycles at 50 µM. In the second experiment, we examined the dose-dependent effect of 4o at 5, 10, and 30 µM and PAC-1 at 30 µM on cell cycles. The cells were treated with compounds for 24 h, and then harvested. The harvested cells were washed twice with ice-cold PBS, fixed in 75% ice-cold ethanol, and stained with propidium iodide (PI) in the presence of RNase at room temperature for 30 min. The stained cells were analyzed for DNA content using a FACScalibur flow cytometer (BD Biosciences, San Jose, CA, USA) and the data were processed using Cell Quest Pro software (BD Biosciences).
Figure 3 Cell cycle analysis after treatment with some compounds. U937 human lymphoma cells were treated with compounds (50 µM) for 24 h. The harvested cells were stained with propidium iodide (PI) in the presence of RNase and then were analyzed for DNA content by using flow cytometry. Ten thousand cells were acquired (n = 3). UN untreated, VH vehicle (DMSO. 0.1%). Representative histograms (A) and bar graphs (B) are shown. p values were calculated using one-way ANOVA in GraphPad Software (San Diego, CA, USA). *p < 0.01 vs VH control.
Figure 4 Cell cycle analysis under treatment with different concentrations of compound 4o. U937 human lymphoma cells were treated with compound 4o at 5, 10 and 30 µM or PAC-1 (30 µM) for 24 h. The harvested cells were stained with propidium iodide (PI) in the presence of RNase and then were analyzed for DNA content by using flow cytometry. Ten thousand cells were acquired (n = 3). UN untreated, VH vehicle (DMSO. 0.1%). Representative histograms (A) and bar graphs (B) are shown. p values were calculated using one-way ANOVA in GraphPad Software (San Diego, CA, USA). *p < 0.01 vs VH control.
In general terms: A flow cytometer gives signals particle by particle.

The test system of series [4] is PC3 (prostate cancer). Briefly: SRB cytotoxicity assay, PC3. In kind it is cell-based. As to conditions: Homo sapiens, 48 h incubation, mean ± SEM of 3 independent experiments.
From the text: as §1, §2

In the next series the test system is U937 cells. Further details: method as in PMID 34674294. As to conditions: 48 h, as reported, read-out: IC50 in 48-h-cytotoxicity assay; cited from earlier work.
The subject of series [5] is NCI-H23 (lung cancer). Further details: method as in PMID 30054973. Conditions: positive control, for relative comparison; read-out: Cytotoxicity (IC50) NCI-H23; cited from earlier work.
The subject of series [6] is PC3 (prostate cancer). Further details: method as in PMID 30054973. As to conditions: positive control, for relative comparison; read-out: Cytotoxicity (IC50) PC3; cited from earlier work.

Where two headings read alike, the source gives them in different places.

For `C=CCc1cccc(/C=N/NC(=O)CN2CCN(Cc3ccccc3)CC2)c1O` [PAC-1, reference compound], the IC50 in series [1] was 9.22 ± 0.12 µM; in the series with SW620 (colon cancer) it was 5.43 ± 0.18 µM; with NCI-H23 (lung cancer) [2] it was 5.11 ± 0.22 µM; in the series with PC3 (prostate cancer) [4], 4.11 ± 0.39 µM; in the series on U937 cells it was 8.47 µM. Further, the Caspase-3 activation result on caspase-3 was “activated caspase-3”. Further, the Cellular morphology result in the series on SW620 cells is “showed morphology of apoptotic cells”. The “Effect on cell cycle distribution” value in series [3] is reported as “accumulation of cells in G0/G1 phase”.
Take `O=c1[nH]cc(F)c(=O)[nH]1` [Compound 5-FU, 5-Fluorouracil]: the IC50 is 13.5 ± 3.92 µM with NCI-H23 (lung cancer) [5] and 13.6 ± 0.46 µM in the series on PC3 (prostate cancer) [6].
